From US8748608B2, “4-phenylpiperazine derivatives with functionalized linkers as dopamine D3 receptor selective ligands and methods of use” (The United States of America as Represented by the …, priority 2007, dated 2014)
Where a name gives a salt, the structure may show the parent alone.

Assays:
[1] = target: human dopamine D3 receptor (Homo sapiens (Human), UniProt P35462); assay: Human D2-like receptor competition binding in HEK cells, D3; details: for Ki: HEK cells, hD3, read-out: D3 Ki; for D2/D3: ratio of Ki at D2 over Ki at D3
Sequence of human dopamine D3 receptor (P35462 whole entry): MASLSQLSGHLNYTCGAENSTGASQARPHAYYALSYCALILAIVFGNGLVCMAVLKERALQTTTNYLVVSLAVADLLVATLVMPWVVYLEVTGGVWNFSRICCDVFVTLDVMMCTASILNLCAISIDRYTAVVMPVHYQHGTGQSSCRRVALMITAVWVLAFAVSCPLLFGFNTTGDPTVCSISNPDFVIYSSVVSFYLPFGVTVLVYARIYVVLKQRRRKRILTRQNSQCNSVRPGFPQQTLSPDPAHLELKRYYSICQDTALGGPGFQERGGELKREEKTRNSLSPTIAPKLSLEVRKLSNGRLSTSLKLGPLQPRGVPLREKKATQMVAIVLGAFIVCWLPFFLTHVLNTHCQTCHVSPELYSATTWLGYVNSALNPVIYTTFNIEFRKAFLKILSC
Source text: (§1) Human dopamine D2-long (D2) and D3 (D3) receptors were expressed in HEK cells. In brief, stably transfected HEK cells expressing the human D2-long and the D3 dopamine receptor were developed using the pIRES bicistronic expression vector (CLONTECH; Palo Alto, Calif.). […] For comparison, human dopamine D4 (D4) receptors were obtained from HEK 293 cells stably transfected with a PCR product of a human cDNA coding for the D4.4 form of the human D4 dopamine receptor.
(§2) The procedures to determine the binding affinities at the human dopamine D2-like receptors, the binding affinities at the serotonin 5HT1A, 5HT2A and 5HT2c receptors and functional mitogenesis assay are known in the art. […] Both of these references are incorporated by reference.

[2] = target: human dopamine D2-long (D2) receptor (Homo sapiens (Human), UniProt P14416); assay: Human D2-like receptor competition binding in HEK cells, D2; details: hD2L
Sequence of human dopamine D2-long (D2) receptor (P14416 whole entry): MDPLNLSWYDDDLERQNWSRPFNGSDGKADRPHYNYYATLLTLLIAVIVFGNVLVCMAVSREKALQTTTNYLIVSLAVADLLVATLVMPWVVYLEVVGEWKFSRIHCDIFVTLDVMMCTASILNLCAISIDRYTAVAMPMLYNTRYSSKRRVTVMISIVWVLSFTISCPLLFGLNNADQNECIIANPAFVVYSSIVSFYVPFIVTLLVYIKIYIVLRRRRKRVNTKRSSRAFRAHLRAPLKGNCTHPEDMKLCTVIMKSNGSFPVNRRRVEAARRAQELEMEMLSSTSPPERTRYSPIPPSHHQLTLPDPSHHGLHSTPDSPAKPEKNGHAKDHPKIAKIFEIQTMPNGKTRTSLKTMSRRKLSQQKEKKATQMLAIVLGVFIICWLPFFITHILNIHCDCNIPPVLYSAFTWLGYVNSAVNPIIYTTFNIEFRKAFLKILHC
Source text: as §1, §2

[3] = target: human D4.4 dopamine receptor (Homo sapiens (Human), UniProt P21917); assay: Human D2-like receptor competition binding in HEK cells, D4; details: for Ki: HEK 293 cells, hD4.4; for D4/D3 Ki ratio: head printed D4/D2, values correspond to D4 Ki over D3 Ki
Sequence of human D4.4 dopamine receptor (P21917 whole entry): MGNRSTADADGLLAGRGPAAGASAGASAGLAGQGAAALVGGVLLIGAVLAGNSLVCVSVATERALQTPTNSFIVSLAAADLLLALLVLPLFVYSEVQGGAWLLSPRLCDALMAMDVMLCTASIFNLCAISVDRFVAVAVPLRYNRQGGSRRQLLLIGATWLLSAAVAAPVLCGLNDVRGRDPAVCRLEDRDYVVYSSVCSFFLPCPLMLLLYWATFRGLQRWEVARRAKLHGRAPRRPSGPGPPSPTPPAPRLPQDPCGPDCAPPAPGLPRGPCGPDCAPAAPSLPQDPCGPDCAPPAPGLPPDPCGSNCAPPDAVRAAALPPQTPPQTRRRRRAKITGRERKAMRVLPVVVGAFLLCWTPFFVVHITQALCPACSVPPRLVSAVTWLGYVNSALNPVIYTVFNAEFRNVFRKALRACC
Source text: as §1, §2

| Ki [1] [nM] | D2/D3 [1] | Ki [2] [nM] | Ki [3] [nM] | D4/D3 Ki ratio [3] | SMILES | melting point [°C] |
| --- | --- | --- | --- | --- | --- | --- |
| 4.6 | 73 | 337 | – | – | COc1ccccc1N1CCN(CC(O)CCNC(=O)c2cc3ccccc3s2)CC1 (stereo not drawn) [Compound 39] | – |
| – | – | – | – | – | O=C(NCCC(O)CN1CCN(c2cccc(Cl)c2Cl)CC1)c1ccc2c(c1)Cc1ccccc1-2 (stereo not drawn) (as salt: oxalate) [Compound 17] | 188 to 190 |
| – | – | – | – | – | COc1ccccc1N1CCN(C/C=C/CNC(=O)c2ccc(-c3ccccn3)cc2)CC1 (as salt: hydrochloride) [Compound 14, N-(4-(4-(2-Methoxy-phenyl)-piperazin-1-yl)-trans-but-2-enyl)-4-pyridin-2-yl-benzamide] | 168 to 170 |
| 2.5 | 34 | 84 | – | – | O=C(NCC(O)CCN1CCN(c2cccc(Cl)c2Cl)CC1)c1ccc2c(c1)Cc1ccccc1-2 (stereo not drawn) [Compound 22, N-(4-(4-(2,3-Dichlorophenyl)piperazin-1-yl)-2-hydroxybutyl)-9H-fluorene-2-carboxamide] | – |
| 2.2 | 71 | 158 | – | – | COc1ccccc1N1CCN(CC(O)CCNC(=O)c2cc3cc(I)ccc3o2)CC1 (stereo not drawn) [Compound 44] | – |
| 0.5 | 105 | 52.5 | – | – | COc1ccccc1N1CCN(CCC(O)CNC(=O)c2cc3ccccc3[nH]2)CC1 (stereo not drawn) [Compound 37] | – |
| 1.3 | 185 | 244 | – | – | COc1ccc2oc(C(=O)NCCC(O)CN3CCN(c4cccc(Cl)c4Cl)CC3)cc2c1 (stereo not drawn) [Compound 48] | – |
| 1.3 | 53 | 68.4 | – | – | COc1ccccc1N1CCN(CCC(O)CNC(=O)c2ccc3c(c2)Cc2ccccc2-3)CC1 (stereo not drawn) [Compound 23, N-(4-(4-(2-Methoxyphenyl)piperazin-1-yl)-2-hydroxybutyl)-9H-fluorene-2-carboxamide] | – |
| 0.65 | 276 | 180 | – | – | COc1ccccc1N1CCN(CC(O)CCNC(=O)c2cc3cc(F)ccc3o2)CC1 (stereo not drawn) [Compound 47] | – |
| 62.1 | 1 | 47.1 | – | – | CCCOc1ccccc1N1CCN(CC(O)CCNC(=O)c2cc3ccccc3[nH]2)CC1 (stereo not drawn) [Compound 38] | – |
| 5.4 | 43 | 233 | – | – | COc1ccccc1N1CCN(CC(O)CCNC(=O)c2cc3ccccc3o2)CC1 (stereo not drawn) [Compound 43] | – |
| 1.6 | 149 | 245 | – | – | O=C(NCCC(O)CN1CCN(c2cccc(Cl)c2Cl)CC1)c1cc2cc(F)ccc2o1 (stereo not drawn) [Compound 46] | – |
| 49.2 | 24 | 1160 | – | – | O=C(NC/C=C/C[N+]1([O-])CCN(c2cccc(Cl)c2Cl)CC1)c1ccc(-c2ccccn2)cc1 [Compound 13, 4-(2,3-Dichlorophenyl)-1-(4-(4-(pyridin-2-yl)benzamido)-trans-but-2-enyl)-piperazine 1-oxide] | – |
| 0.98 | 188 | 185 | – | – | O=C(NCCC(O)CN1CCN(c2cccc(Cl)c2Cl)CC1)c1cc2ccccc2o1 (stereo not drawn) [Compound 42] | – |
| 1.8 | 138 | 249 | 1230 | 683 | COc1ccccc1N1CCN(CC(O)CCNC(=O)c2ccc3c(c2)Cc2ccccc2-3)CC1 (stereo not drawn) [Compound 19, N-(3-Hydroxy-4-(4-(2-methoxyphenyl)piperazin-1-yl)-butyl)-9H-fluorene-2-carboxamide] | – |
| 3.5 | 200 | 697 | – | – | O=C(NCCC(O)CN1CCN(c2cccc(Cl)c2Cl)CC1)c1cc2cc(I)ccc2o1 (stereo not drawn) [Compound 45] | – |
| 1 | 172 | 174 | – | – | COc1ccc2oc(C(=O)NCCC(O)CN3CCN(c4ccccc4OC)CC3)cc2c1 (stereo not drawn) [Compound 49] | – |
| 0.26 | 109 | 28.4 | – | – | O=C(NCC(O)CCN1CCN(c2cccc(Cl)c2Cl)CC1)c1cc2ccccc2[nH]1 (stereo not drawn) [Compound 36] | – |
| 1.37 | 181 | 249 | 1920 | 1401 | COc1ccccc1N1CCN(CC(O)CCNC(=O)c2cc3ccccc3[nH]2)CC1 (stereo not drawn) [Compound 35] | – |
